The source of these data is patent EP0719251B1, “BICYCLO (2.2.2) OCTANE DERIVATIVES CHOLECYSTOKININ AND/OR GASTRIN ANTAGONISTS” (JAMES BLACK FOUNDATION LIMITED, priority 1993, dated 1995).

The target in one assay is T1, CCKB receptor (Mus musculus, UniProt P56481).
T1 construct: The whole brains from male mice (CD1 22-25g; Charles River) were removed; from tissue; host or cells: cerebral cortex membranes of male CD1 mice
T1 sequence (P56481 1-453): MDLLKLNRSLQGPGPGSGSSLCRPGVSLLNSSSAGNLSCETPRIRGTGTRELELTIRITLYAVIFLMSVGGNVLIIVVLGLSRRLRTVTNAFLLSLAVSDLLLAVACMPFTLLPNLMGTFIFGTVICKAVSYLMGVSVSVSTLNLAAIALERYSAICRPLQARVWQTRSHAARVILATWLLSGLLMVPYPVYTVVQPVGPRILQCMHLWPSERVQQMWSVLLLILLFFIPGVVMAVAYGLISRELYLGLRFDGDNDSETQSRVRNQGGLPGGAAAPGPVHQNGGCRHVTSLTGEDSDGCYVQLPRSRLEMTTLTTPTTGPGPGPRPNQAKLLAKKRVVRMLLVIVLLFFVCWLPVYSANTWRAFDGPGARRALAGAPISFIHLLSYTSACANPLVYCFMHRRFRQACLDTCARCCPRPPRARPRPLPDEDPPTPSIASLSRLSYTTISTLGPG
Nature of the assay: radioligand binding assay at the CCKB receptor in mouse cortical membranes. Conditions: [125I]-CCK8S 200pM, 150 min at 21 ± 3°C; for Ki: read-out: CCKB pKi (converted). The procedure: The compounds of the examples were tested for binding at the CCKB receptor in mouse cortical membranes by means of a radioligand binding assay. The procedure was as follows:
The whole brains from male mice (CD1 22-25g; Charles River) were removed and placed in ice-cold buffer (pH7.2 @ 21 ± 3°C) of the following composition (mM); 10 HEPES, 130 NaCl, 4.7 KCl, 5 MgCl2, 1 EDTA and containing 0.25g.l^-1 bacitracin. The cortex was dissected, weighed and homogenised in 40ml ice-cold buffer using a Teflon-in-glass homogeniser. The homogenate was centrifuged at 39,800g for 20 min at 4°C, the supernatant discarded and the pellet resuspended by homogenisation in fresh buffer. The homogenate was recentrifuged (39,800g; 20 min @ 4°C) and the final pellet was resuspended in HEPES buffer to give a tissue concentration of 2mg.ml^-1(original wet weight).
The assay was terminated by rapid filtration through pre-soaked Whatman GF/B filters using a Brandell Cell harvester. The filters were washed (3 x 3ml) with ice-cold 50mM Tris-HCl (pH7.4 @ 4°C) and bound radioactivity determined by counting (1 min.) in a gamma-counter.

The target of another assay is T2, gastrin (Rattus norvegicus, UniProt P30553).
T2 construct: The stomach was excised and flushed with ca. 1 ml of unbuffered physiological saline solution; from tissue; host or cells: isolated whole stomach of immature rats (33-50 g, ca. 21 days old)
T2 sequence (P30553 1-452): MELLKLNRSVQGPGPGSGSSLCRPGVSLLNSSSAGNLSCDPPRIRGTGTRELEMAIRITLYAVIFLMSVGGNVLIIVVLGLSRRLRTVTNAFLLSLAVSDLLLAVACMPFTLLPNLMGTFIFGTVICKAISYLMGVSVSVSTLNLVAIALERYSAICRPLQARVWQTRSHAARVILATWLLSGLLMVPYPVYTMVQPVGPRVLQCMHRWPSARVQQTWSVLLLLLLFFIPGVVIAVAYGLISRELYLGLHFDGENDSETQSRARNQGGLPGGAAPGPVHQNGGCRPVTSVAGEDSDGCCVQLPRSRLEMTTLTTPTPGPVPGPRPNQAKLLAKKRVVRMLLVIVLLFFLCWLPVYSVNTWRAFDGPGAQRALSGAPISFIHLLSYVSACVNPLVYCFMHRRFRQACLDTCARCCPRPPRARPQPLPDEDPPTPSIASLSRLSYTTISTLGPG
Nature of the assay: gastrin antagonist activity in an immature rat stomach assay. Conditions: isolated immature rat stomach, cumulative pentagastrin dose-response curves, acid secretion; read-out: Gastrin pKB (converted). How it is done:
The compounds of the examples were also tested for gastrin antagonist activity in an immature rat stomach assay. The procedure was as follows: The oesophagus of immature rats (33-50 g, ca. 21 days old) was ligated at the level of the cardiac sphincter and the duodenal sphincter was cannulated. The stomach was excised and flushed with ca. 1 ml of unbuffered physiological saline solution. The fundus was punctured and cannulated. A further 4-5 ml of unbuffered solution was flushed through the stomach to ensure the preparation was not leaking. […] The stomach was continuously perfused at a rate of 1 ml min^-1 with unbuffered solution gassed with 100% O2 with the perfusate passing over an internally referenced pH-electrode fixed 12 cm above the stomach. After 120 min of stabilisation the drugs were added directly to the serosal solution in the organ bath and after a further 60 min cumulative pentagastrin dose-response curves were started.

The next assay addresses T3, CCKA (Cavia porcellus, UniProt Q63931).
T3 construct: The pancreatata were removed from male guinea-pigs (200-300g; Dunkin Hartley); from tissue; host or cells: pancreas membranes of male Dunkin Hartley guinea-pigs
T3 sequence (Q63931 1-430): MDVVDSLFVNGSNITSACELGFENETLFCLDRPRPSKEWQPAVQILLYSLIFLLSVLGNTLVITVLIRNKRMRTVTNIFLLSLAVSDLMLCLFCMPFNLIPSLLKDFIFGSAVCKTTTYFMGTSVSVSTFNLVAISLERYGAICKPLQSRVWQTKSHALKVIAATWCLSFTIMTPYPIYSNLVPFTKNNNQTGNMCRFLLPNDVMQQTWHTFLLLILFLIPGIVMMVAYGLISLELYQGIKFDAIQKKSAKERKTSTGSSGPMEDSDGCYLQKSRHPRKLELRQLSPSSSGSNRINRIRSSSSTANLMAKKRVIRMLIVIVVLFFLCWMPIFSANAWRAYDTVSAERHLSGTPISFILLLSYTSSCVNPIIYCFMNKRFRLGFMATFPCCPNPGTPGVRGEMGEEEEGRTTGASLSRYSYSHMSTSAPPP
The assay can be described thus: CCKA binding assay in guinea-pig pancreas membranes. The settings on record: [125I]-CCK8(S) 200pM; for Ki: containing 0.375 µM PD134,308, read-out: CCKA pKi (converted); for CCKA pKi: containing 0.375 µM PD134,308. The procedure:
The compounds of the examples were also tested in a CCKÅ binding assay as follows:
The pancreatata were removed from male guinea-pigs (200-300g; Dunkin Hartley) and placed in ice-cold HEPES buffer (pH 7.2 @ 21 ± 3° ). The pancreatata were homogenised in 40 ml ice-cold HEPES buffer using a polytron (Brinkmann, PT10, setting 10) 4 x 1 second.
The homogenate was centrifuged at 39,800g for 15 min at 4°. The supernatant was discarded and the pellet re-suspended using a Teflon-in-glass homogeniser in 20 volumes of fresh buffer and recentrifuged as above. The final pellet was re-suspended using a Teflon-in-glass homogeniser to a tissue concentration of 1 mg.ml^-1 (original wet weight), and filtered through 500 µm pore-size Nytex mesh.
The membranes (400µl; containing 0.375 µM PD134,308) are incubated for 150 minutes at 21 ± 3° in a final volume of 0.5ml with HEPES buffer containing [^125I]-CCK8(S) (50µl; 200pM) and competing compound. Total and non-specific binding of [^125I]-CCK8 (S) are defined using 50µl of buffer and 50µl of 100nM L-364,718 respectively. The assay is terminated by rapid filtration through pre-soaked Whatman GF/B filters using a Brandell Cell Harvester. The filters were washed (3 x 3ml) with ice-cold 50mM Tris HCl (pH 7.4 at 4° ) and bound radioactivity is determined by counting (1 min) in a gamma counter.

For the molecule `O=C(O)c1cc(NC(=O)[C@H](Cc2ccccc2)NC(=O)C2C3c4ccccc4C(c4ccccc43)C2C(=O)NCC23CC4CC(CC(C4)C2)C3)cc(C(=O)O)c1` (single isomer, unassigned) [Example 1, cis-7-(1S-(3,5-dicarboxyphenylamino-carbonyl) -2-phenylethylaminocarbonyl)-8-(1-adamantanemethylamino-carbonyl) -2,3,5,6-dibenzobicyclo[2.2.2] octane], the Ki is 1.58 nM on CCKB receptor and 2000 nM on CCKA. The Kb on gastrin is 5.01 nM.

Take `O=C(O)c1cc(NC(=O)[C@H](Cc2ccccc2)NC(=O)C2C3c4ccccc4C(c4ccccc43)C2C(=O)NCC23CC4CC(CC(C4)C2)C3)cc(C(=O)O)c1` (single isomer, unassigned) [Example 2, cis-7-(1S-(3,5-dicarboxyphenylaminocarbonyl) -2-phenylethylaminocarbonyl)-8-(1-adamantanemethylaminocarbonyl)-2,3,5,6-dibenzobicyclo[2.2.2] octane]: the results for the Ki on CCKB receptor and at CCKA were 15.8 nM and 501 nM, respectively. For the same molecule, the Kb on gastrin was 50.1 nM.

Consider `O=C(NCC12CC3CC(CC(C3)C1)C2)C1C2c3ccccc3C(c3ccccc32)C1C(=O)N[C@@H](Cc1ccccc1)C(=O)Nc1ccccc1` (single isomer, unassigned) [Example 22, cis-7-(1S-(phenylaminocarbonyl)-2-phenyl-ethylaminocarbonyl)-8-(1-adamantanemethylaminocarbonyl) -2,3,5,6-dibenzobicyclo[2.2.2]octane], for which the Ki on CCKB receptor is 3980 nM; on CCKA, 1260 nM.

For the molecule `O=C(O)c1cc(NC(=O)[C@H](Cc2ccccc2)NC(=O)C2C3c4ccccc4C(c4ccccc43)C2C(=O)NCc2cccc3ccccc23)cc(C(=O)O)c1` (single isomer, unassigned) [Example 33, cis-7-(1S-(3,5-dicarboxyphenylaminocarbonyl)-2-phenylethylaminocarbonyl)-8-(1-naphthalenemethylaminocarbonyl)-2,3,5,6-dibenzobicyclo[2.2.2]octane], the Ki at CCKB receptor is 316 nM; on CCKA, 1260 nM.

Turning to `O=C(O)c1cc(NC(=O)[C@H](Cc2ccccc2)NC(=O)C2C3c4ccccc4C(c4ccccc43)C2C(=O)NCCc2c[nH]c3ccccc23)cc(C(=O)O)c1` (single isomer, unassigned) [Example 50, cis-7-(1S-(3,5-dicarboxyphenylaminocarbonyl) -2-phenylethylaminocarbonyl)-8-(3-indolylethylaminocarbonyl)-2,3,5,6-dibenzobicyclo[2.2.2] octane], the values for the Ki on CCKB receptor and at CCKA were 15.8 nM and 398 nM, respectively.

As for `O=C(O)c1cc(NC(=O)[C@H](Cc2ccccc2)NC(=O)C2C3c4ccccc4C(c4ccccc43)C2C(=O)NCCc2c[nH]c3ccccc23)cc(C(=O)O)c1` (single isomer, unassigned) [Example 51, cis-7-(1S-(3,5-dicarboxyphenylaminocarbonyl) -2-phenylethylaminocarbonyl)-8-(3-indolylethylaminocarbonyl) -2,3,5,6-dibenzobicyclo [2.2.2]octane], the Ki was 79.4 nM on CCKB receptor and 1580 nM on CCKA.

For the molecule `O=C(O)c1cccc(NC(=O)[C@H](Cc2cccs2)NC(=O)C2C3c4ccccc4C(c4ccccc43)C2C(=O)NCC23CC4CC(CC(C4)C2)C3)c1` (single isomer, unassigned) [Example 55, cis-7-(1S-(3-carboxyphenylaminocarbonyl)-2-(2-thiophenyl)ethylaminocarbonyl)-8-(1-adamantanemethylaminocarbonyl)-2,3,5,6-dibenzobicyclo[2.2.2]octane], the results for the Ki at CCKB receptor and at CCKA were 6.31 nM and 794 nM, respectively.

As to `O=C(O)c1cccc(NC(=O)[C@H](Cc2cccs2)NC(=O)C2C3c4ccccc4C(c4ccccc43)C2C(=O)NCC23CC4CC(CC(C4)C2)C3)c1` (single isomer, unassigned) [Example 56], the results for the Ki on CCKB receptor and at CCKA were 25.1 nM and 1000 nM, respectively.

For the molecule `O=C(O)c1ccccc1NC(=O)[C@H](Cc1ccccc1)NC(=O)C1C2c3ccccc3C(c3ccccc32)C1C(=O)NCC12CC3CC(CC(C3)C1)C2` (stereo partly drawn) [Example 45, cis-7-(1S-(2-carboxyphenylaminocarbonyl)-2-phenylethylaminocarbonyl)-8-(1-adamantane-methylaminocarbonyl) -2,3,5,6-dibenzobicyclo[2.2.2]octane], the figures for the Ki at CCKB receptor and at CCKA were 200 nM and 1260 nM, respectively.

As for “cis-7-(1S-(3,5-dicarboxyphenylaminocarbonyl) -2-phenylethylaminocarbonyl)-8-(2-thiophenylmethylaminocarbonyl)-2,3,5,6-dibenzobicyclo[2.2.2] octane [Example 52]”, the “CCKB pKi” value at CCKB receptor is 7.3. Further, the “CCKA pKi” value on CCKA is recorded as 6.8.

Take “cls-7-(1S-(3,5-dicarboxyphenylaminocarbonyl) -2-phenylethylaminocarbonyl) -8-(2-phenylpropylaminocarbonyl) -2,3,5,6-dibenzobicyclo[2.2.2]octane [Example 54]”: the “CCKB pKi” value on CCKB receptor amounted to 7.5. Further, the “CCKA pKi” value at CCKA stood at 5.8.
